# How the values were obtained:
# [1] = molecular target: T1, Prolyl endopeptidase (Homo sapiens) (UniProt P48147); test: Effect on the activity of prolyl endopeptidase (PEP) is evaluated at 1 mM.
# T1 sequence (whole entry): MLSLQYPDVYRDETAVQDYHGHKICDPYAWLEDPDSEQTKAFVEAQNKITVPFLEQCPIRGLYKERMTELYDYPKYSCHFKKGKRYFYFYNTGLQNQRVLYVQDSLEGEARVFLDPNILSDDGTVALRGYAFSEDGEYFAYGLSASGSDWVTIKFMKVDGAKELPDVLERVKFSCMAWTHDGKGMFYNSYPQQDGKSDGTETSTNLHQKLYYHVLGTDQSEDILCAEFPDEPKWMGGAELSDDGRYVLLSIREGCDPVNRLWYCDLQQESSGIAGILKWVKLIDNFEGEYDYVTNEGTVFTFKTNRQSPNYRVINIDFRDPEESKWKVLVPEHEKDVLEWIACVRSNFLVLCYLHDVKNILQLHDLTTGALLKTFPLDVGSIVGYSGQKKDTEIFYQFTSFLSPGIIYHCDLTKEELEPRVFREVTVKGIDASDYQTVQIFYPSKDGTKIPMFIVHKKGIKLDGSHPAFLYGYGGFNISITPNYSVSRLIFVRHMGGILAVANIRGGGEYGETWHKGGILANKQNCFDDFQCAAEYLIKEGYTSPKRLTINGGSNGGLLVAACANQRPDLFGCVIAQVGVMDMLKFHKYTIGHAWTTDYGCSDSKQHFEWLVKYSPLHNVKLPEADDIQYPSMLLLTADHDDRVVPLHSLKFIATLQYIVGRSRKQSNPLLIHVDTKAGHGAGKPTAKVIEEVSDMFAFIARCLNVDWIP
# [2] = Effect on the activity of membrane alanyl aminopeptidase (MAAP) is evaluated at the IC50 concentration for DPPIV.
# [3] = species: Homo sapiens; test: Effect on the activity of elastase is evaluated at a concentration of 1 mM.; type: functional
# [4] = species: Homo sapiens; test: cells
# [5] = molecular target: Dipeptidyl peptidase 4 (Mus musculus) (UniProt P28843)
# Description: Effect on the activity of Dipeptidylpeptidase II (DPP II) is evaluated at a concentration of 1 mM.
# [6] = molecular target: Dipeptidyl peptidase 4 (Mus musculus) (UniProt P28843); remark: listed apart in the source
# Description: Effect on the activity of Dipeptidylpeptidase II (DPP II) is evaluated at the IC50 concentration for DPPIV.
# [7] = molecular target: T1, Prolyl endopeptidase (Homo sapiens); test: Effect on the activity of prolyl endopeptidase (PEP) is evaluated at the IC50 concentration for DPPIV.
# [8] = Functional stability in plasma was estimated by fitting the inverse of apparent IC50 values verses time with a single-exponential decay; type: ADME, cell-free
# [9] = molecular target: Dipeptidyl peptidase 4 (Homo sapiens, UniProt P27487)
# Description: In vitro inhibition of human Dipeptidylpeptidase IV.
# [10] = molecular target: Aminopeptidase N (Homo sapiens) (UniProt P15144); test: Effect on the activity of membrane alanyl aminopeptidase (MAAP) is evaluated at a concentration of 1 mM.
# [11] = species: Homo sapiens; test: Effect on the activity of elastase was determined as IC50; type: functional
# Chain of Dipeptidyl peptidase 4 (Mus musculus) (P28843 whole entry, looked up): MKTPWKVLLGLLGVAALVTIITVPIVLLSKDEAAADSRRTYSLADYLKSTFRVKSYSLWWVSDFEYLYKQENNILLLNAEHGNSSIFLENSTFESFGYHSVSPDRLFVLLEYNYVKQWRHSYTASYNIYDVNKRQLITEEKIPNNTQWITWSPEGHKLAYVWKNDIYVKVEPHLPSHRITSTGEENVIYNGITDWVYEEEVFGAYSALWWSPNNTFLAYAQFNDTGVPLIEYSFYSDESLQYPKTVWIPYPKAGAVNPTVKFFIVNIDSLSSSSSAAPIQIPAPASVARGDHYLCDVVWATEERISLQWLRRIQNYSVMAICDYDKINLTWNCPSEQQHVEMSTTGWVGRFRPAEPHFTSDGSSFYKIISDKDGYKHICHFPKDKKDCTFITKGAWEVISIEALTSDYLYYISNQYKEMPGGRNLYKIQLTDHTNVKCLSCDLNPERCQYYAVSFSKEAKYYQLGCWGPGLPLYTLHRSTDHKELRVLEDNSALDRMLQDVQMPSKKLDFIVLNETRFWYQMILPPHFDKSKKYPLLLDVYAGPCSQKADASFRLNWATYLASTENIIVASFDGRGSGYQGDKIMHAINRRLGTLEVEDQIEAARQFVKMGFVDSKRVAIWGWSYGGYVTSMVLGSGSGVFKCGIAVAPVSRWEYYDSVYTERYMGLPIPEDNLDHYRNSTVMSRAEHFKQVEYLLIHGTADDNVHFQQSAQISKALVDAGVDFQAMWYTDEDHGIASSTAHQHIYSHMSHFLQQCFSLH
# Chain of Dipeptidyl peptidase 4 (P27487 whole entry): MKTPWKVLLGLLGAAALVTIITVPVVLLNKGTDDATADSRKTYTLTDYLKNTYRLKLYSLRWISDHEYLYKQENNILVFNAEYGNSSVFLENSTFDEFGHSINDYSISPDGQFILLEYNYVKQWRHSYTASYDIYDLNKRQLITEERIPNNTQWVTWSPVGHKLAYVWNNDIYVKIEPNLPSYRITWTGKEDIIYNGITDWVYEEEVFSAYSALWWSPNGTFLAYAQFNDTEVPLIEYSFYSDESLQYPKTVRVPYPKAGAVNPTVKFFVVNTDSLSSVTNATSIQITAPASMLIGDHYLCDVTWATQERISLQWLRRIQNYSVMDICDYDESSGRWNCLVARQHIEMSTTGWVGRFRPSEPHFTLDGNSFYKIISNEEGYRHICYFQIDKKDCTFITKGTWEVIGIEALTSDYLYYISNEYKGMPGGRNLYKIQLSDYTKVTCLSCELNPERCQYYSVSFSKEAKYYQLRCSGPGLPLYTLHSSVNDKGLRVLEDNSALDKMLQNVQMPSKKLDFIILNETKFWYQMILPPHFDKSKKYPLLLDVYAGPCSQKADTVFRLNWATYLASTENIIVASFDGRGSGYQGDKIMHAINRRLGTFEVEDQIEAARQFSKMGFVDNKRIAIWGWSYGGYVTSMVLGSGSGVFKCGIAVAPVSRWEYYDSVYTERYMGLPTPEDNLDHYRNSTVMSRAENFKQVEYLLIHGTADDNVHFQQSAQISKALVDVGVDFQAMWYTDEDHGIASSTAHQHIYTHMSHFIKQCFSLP
# Chain of Aminopeptidase N (Homo sapiens) (P15144 whole entry): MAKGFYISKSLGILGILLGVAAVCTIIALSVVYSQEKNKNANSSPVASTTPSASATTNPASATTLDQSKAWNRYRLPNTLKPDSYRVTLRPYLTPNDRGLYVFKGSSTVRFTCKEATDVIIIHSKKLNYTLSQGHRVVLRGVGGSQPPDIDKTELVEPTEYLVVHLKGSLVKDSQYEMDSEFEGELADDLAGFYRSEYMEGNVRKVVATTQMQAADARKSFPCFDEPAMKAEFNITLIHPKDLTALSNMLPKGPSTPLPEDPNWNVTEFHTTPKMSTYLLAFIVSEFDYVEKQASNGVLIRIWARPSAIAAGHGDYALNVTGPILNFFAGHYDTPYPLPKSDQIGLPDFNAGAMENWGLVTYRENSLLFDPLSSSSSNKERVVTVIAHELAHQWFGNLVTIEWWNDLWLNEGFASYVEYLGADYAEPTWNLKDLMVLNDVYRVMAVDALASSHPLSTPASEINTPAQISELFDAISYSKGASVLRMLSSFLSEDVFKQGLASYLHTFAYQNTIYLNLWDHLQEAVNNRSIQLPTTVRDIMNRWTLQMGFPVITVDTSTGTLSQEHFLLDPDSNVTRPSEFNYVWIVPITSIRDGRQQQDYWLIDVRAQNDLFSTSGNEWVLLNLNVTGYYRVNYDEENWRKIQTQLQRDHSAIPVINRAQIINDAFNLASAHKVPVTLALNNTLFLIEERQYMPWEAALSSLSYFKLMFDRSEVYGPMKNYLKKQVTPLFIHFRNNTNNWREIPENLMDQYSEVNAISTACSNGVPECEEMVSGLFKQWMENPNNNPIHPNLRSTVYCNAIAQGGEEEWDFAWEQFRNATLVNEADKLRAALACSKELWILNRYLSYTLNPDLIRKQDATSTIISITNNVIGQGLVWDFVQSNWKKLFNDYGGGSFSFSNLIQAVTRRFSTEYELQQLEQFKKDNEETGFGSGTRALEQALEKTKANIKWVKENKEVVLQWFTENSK
Structure (SMILES),Specificity [1],Specificity [7],half-life [8] [min],IC50 [9] [µM],other results
Cl.O=C([C@H]1CCCN1)N1CCCC1P(=O)(Oc1ccccc1)Oc1ccccc1 (stereo not given in full),71,107,300,,Specificity [2]: 100; Specificity [3]: 82; IC50 [4]: 100 µM; Specificity [5]: 73; Specificity [6]: 102
Cl.O=C(C1CCCN1)N1CCCC1P(=O)(Oc1ccc(O)cc1)Oc1ccc(O)cc1 (stereo not given),,,> 200,190,
Cl.NCC(=O)Nc1ccc(OP(=O)(Oc2ccc(NC(=O)CN)cc2)C2CCCN2C(=O)C2CCCN2)cc1 (stereo not given),,,28,,
C[C@H](N)C(=O)Nc1ccc(OP(=O)(Oc2ccc(NC(=O)[C@@H](C)N)cc2)C2CCCN2C(=O)C2CCCN2)cc1.Cl (stereo not given in full),47,88,8,0.6,
CC(=O)Nc1cccc(OP(=O)(Oc2cccc(NC(C)=O)c2)C2CCCN2C(=O)C2CCCN2)c1.Cl (stereo not given),,,220,,
COc1ccc(OP(=O)(Oc2ccc(OC)cc2)C2CCCN2C(=O)C2CCCN2)cc1.Cl (stereo not given),,,470,22,
O=C(C1CCCN1)N1CCCC1P(=O)(OCC(Cl)(Cl)Cl)OCC(Cl)(Cl)Cl (stereo not given),,,,1800,
CS(=O)(=O)Nc1ccc(OP(=O)(Oc2ccc(NS(C)(=O)=O)cc2)C2CCCN2C(=O)C2CCCN2)cc1.Cl (stereo not given),4,73,150,,
COC(=O)C(Cc1ccc(OP(=O)(Oc2ccc(CC(NC(C)=O)C(=O)OC)cc2)C2CCCN2C(=O)C2CCCN2)cc1)NC(C)=O (stereo not given),35,102,,,
O=C(C1CCCN1)N1CCCC1P(=O)(OCC(F)(F)F)OCC(F)(F)F (stereo not given),,,,9100,
CCCNC(=O)c1ccc(OP(=O)(Oc2ccc(C(=O)NCCC)cc2)C2CCCN2C(=O)C2CCCN2)cc1.Cl (stereo not given),5,97,12,,
Cl.O=C(CNC(=O)c1ccccc1)Nc1ccc(OP(=O)(Oc2ccc(NC(=O)CNC(=O)c3ccccc3)cc2)C2CCCN2C(=O)C2CCCN2)cc1 (stereo not given),32,92,93,,
CCOC(=O)CNC(=O)c1ccc(OP(=O)(Oc2ccc(C(=O)NCC(=O)OCC)cc2)C2CCCN2C(=O)C2CCCN2)cc1.Cl (stereo not given),1,85,35,,Specificity [10]: 94; Specificity [3]: 6; Specificity [5]: 66; Specificity [6]: 78; IC50 [11]: 102 µM
COC(=O)c1ccc(OP(=O)(Oc2ccc(C(=O)OC)cc2)C2CCCN2C(=O)C2CCCN2)cc1 (stereo not given),4,73,,,
Cl.O=C(C1CCCN1)N1CCCC1P(=O)(Oc1ccc(NN2CCCC2)cc1)Oc1ccc(NN2CCCC2)cc1 (stereo not given),,,,5,
Cl.NC(=O)Nc1cccc(OP(=O)(OC2=CC=CC(NC(N)=O)C2)C2CCCN2C(=O)C2CCCN2)c1 (stereo not given),,,,2.3,
COC(=O)CCNC(=O)c1ccc(OP(=O)(Oc2ccc(C(=O)NCCC(=O)OC)cc2)C2CCCN2C(=O)C2CCCN2)cc1.Cl (stereo not given),0,83,26,,
Cl.O=C([C@@H]1CCCN1)N1CCCC1P1(=O)Oc2ccccc2-c2ccccc2O1 (stereo not given in full),,,6,31,
CC(=O)Nc1ccc(OP(=O)(Oc2ccc(NC(C)=O)cc2)C2CCCN2C(=O)C2CCCN2)cc1.Cl (stereo not given),60,96,,,Specificity [10]: 96; Specificity [2]: 99; Specificity [3]: 105; Specificity [5]: 83; Specificity [6]: 100

# Reference: ChEMBL document CHEMBL1132608, “Structure-activity relationship of diaryl phosphonate esters as potent irreversible dipeptidyl peptidase IV inhibitors” (J Med Chem, 1999)
